Measurements from patent US9932392B2, “Prevention of infection” (priority 2012, dated 2018).

How the values were obtained:
[1] = system: toxinogenic C. difficile strain 10465; assay: Primary prevention of C. difficile infection (mouse model); type: in vivo, C57BL/6 mice; conditions: po gavage day -1 to 3 (5 doses), FIG. 6
Experimental: (§1) C57BL/6 mice were housed in cages with free access to chow (Purina 5000) and tap water. Animals were treated with a mixture of oral antibiotics (kanamycin, gentamicin, colistin, metronidazole, and vancomycin) for 3 days as previously described (Chen et al (2008) Gastroenterology 135: 1984-92). Two days later, they were given parenteral clindamycin phosphate (10 mG/kg s.c.) [Day −1]. One day later [Day 0] they were challenged by gavage with 0.5×10^5 cfu of toxinogenic C. difficile strain 10465. A moderate to fulminant colitis developed 1 to 5 days after the administration of C. difficile. Untreated, this progresses rapidly into severe and fatal colitis in the majority of animals. The test compounds (suspended in carbonate buffer) were administered to groups at the dosage levels as shown in Table 1 (n=10 per group except group 4). Dosing (by gavage) started 1 day before C. difficile challenge [Day −1] and continued daily for 5 days.
(§2) Animals were weighed daily and observed three times daily for morbidity and presence or absence of severe CDI with diarrhea. Animals judged to be in a moribund state [extended period of weight loss progressing to an emaciated state, anorexia for 24-48 hrs, prolonged lethargy (more than 3 days), signs of paralysis, skin erosions or trauma, hunched posture, distended abdomen] were euthanized by a single injection of sodium pentobarbital. […]

[2] = system: toxinogenic C. difficile strain 10465; assay: Prevention of recurrence of C. difficile infection after vancomycin (mouse model); type: in vivo, C57BL/6 mice; conditions: vancomycin day -1 to 3 (5 doses), then Ig 400 mG/kg po day 4 to 8 (5 doses); observation until day 28; FIG. 7
Experimental: as §1, §2

CN[C@H](CC(C)C)C(=O)N[C@H]1C(=O)N[C@@H](CC(N)=O)C(=O)N[C@H]2C(=O)N[C@H]3C(=O)N[C@H](C(=O)N[C@H](C(=O)O)c4cc(O)cc(O)c4-c4cc3ccc4O)[C@H](O)c3ccc(c(Cl)c3)Oc3cc2cc(c3O[C@@H]2O[C@H](CO)[C@@H](O)[C@H](O)[C@H]2O[C@H]2C[C@](C)(N)[C@H](O)[C@H](C)O2)Oc2ccc(cc2Cl)[C@H]1O [Vancomycin]
fraction of animals with recurrence of C. difficile infection after stopping treatment [1]: 60%
survival rate ([1]; vancomycin 50 mG/kg, IgA 400 mG/kg): 40%
rate of recurrence of infection (animals) [2]: 6 out of 10
